# Test results: PMC8330742, “New benzothieno[2,3-c]pyridines as non-steroidal CYP17 inhibitors: design, synthesis, anticancer screening, apoptosis induction, and in silico ADME profile studies” (Journal of Enzyme Inhibition and Medicinal Chemistry, 2021)
# Tests used:
# SR = test: NCI-60 SRB screen; format: cell-based; settings: Homo sapiens, single dose 10^−5 M, read-out: Growth inhibition (%)
# 786-0 = test: NCI-60 SRB screen; format: cell-based; settings: Homo sapiens; 786-0; single dose 10^−5 M; read-out: Growth inhibition (%)
# NCI/ADR-RES = test: NCI-60 SRB screen; format: cell-based, human; settings: Homo sapiens, single dose 10^−5 M, read-out: Growth inhibition (%)
# OVCAR-8 = test: NCI-60 SRB screen; format: cell-based, human; settings: Homo sapiens; OVCAR-8; single dose 10^−5 M; read-out: Growth inhibition (%)
# OVCAR-4 = test: NCI-60 SRB screen; format: cell-based, human; settings: Homo sapiens; OVCAR-4; single dose 10^−5 M; read-out: Growth inhibition (%)
# UACC-62 = test: NCI-60 SRB screen; format: cell-based, human; settings: Homo sapiens; UACC-62; single dose 10^−5 M; read-out: Growth inhibition (%)
# COLO 205 = test: NCI-60 SRB screen; format: cell-based, human; settings: Homo sapiens; COLO 205; single dose 10^−5 M; read-out: Growth inhibition (%)
# HCC-2998 = test: NCI-60 SRB screen; format: cell-based, human; settings: Homo sapiens; HCC-2998; single dose 10^−5 M; read-out: Growth inhibition (%)
# UO-31 = test: NCI-60 SRB screen; format: cell-based, human; settings: Homo sapiens; UO-31; single dose 10^−5 M; read-out: Growth inhibition (%)
# SW-620 = test: NCI-60 SRB screen; format: cell-based; settings: Homo sapiens; SW-620; single dose 10^−5 M; read-out: Growth inhibition (%)
# UACC-257 = test: NCI-60 SRB screen; format: cell-based, human; settings: Homo sapiens, UACC-257; UACC-275 (so in the source); single dose 10^−5 M; read-out: Growth inhibition (%)
# HOP-62 = test: NCI-60 SRB screen; format: cell-based, human; settings: Homo sapiens; HOP-62; single dose 10^−5 M; read-out: Growth inhibition (%)
# NCI-H322M = test: NCI-60 SRB screen; format: cell-based, human; settings: Homo sapiens, single dose 10^−5 M, read-out: Growth inhibition (%)
# MDA-MB-435 = test: NCI-60 SRB screen; format: cell-based; settings: Homo sapiens, MDA-MB-435, read-out: Growth inhibition (%)
# NCI-H226 = test: NCI-60 SRB screen; format: cell-based, human; settings: Homo sapiens; NCI-H226; single dose 10^−5 M; read-out: Growth inhibition (%)
# RXF 393 = test: NCI-60 SRB screen; format: cell-based, human; settings: Homo sapiens; RXF 393; single dose 10^−5 M; read-out: Growth inhibition (%)
# ACHN = test: NCI-60 SRB screen; format: cell-based; settings: Homo sapiens, single dose 10^−5 M, read-out: Growth inhibition (%)
# CCRF-CEM = test: NCI-60 SRB screen; format: cell-based; settings: Homo sapiens, single dose 10^−5 M, read-out: Growth inhibition (%)
# SK-MEL-5 = test: NCI-60 SRB screen; format: cell-based, human; settings: Homo sapiens; SK-MEL-5; single dose 10^−5 M; read-out: Growth inhibition (%)
# NCI-H460 = test: NCI-60 SRB screen; format: cell-based, human; settings: Homo sapiens; NCI-H460; single dose 10^−5 M; read-out: Growth inhibition (%)
# LOX IMVI = test: NCI-60 SRB screen; format: cell-based, human; settings: Homo sapiens, single dose 10^−5 M, read-out: Growth inhibition (%)
# HL-60(TB) = test: NCI-60 SRB screen; format: cell-based, human; settings: Homo sapiens; HL-60 (TB); single dose 10^−5 M; read-out: Growth inhibition (%)
# HCT-15 = test: NCI-60 SRB screen; format: cell-based, human; settings: Homo sapiens; HCT-15; single dose 10^−5 M; read-out: Growth inhibition (%)
# K-562 = test: NCI-60 SRB screen; format: cell-based, human; settings: Homo sapiens, K562; K-562; single dose 10^−5 M; read-out: Growth inhibition (%)
# HOP-92 = test: NCI-60 SRB screen; format: cell-based, human; settings: Homo sapiens; HOP-92; single dose 10^−5 M; read-out: Growth inhibition (%)
# [1] = tested on: panel of 60 cancer cell lines; test: NCI-60 SRB screen, mean or range over the panel; format: cell-based, human; settings: Homo sapiens; mean over the cell lines; single dose 10^−5 M; read-out: Mean growth inhibition (%)
# SF-295 = test: NCI-60 SRB screen; format: cell-based, human; settings: Homo sapiens; SF-295; single dose 10^−5 M; read-out: Growth inhibition (%)
# HCT-116 = test: NCI-60 SRB screen; format: cell-based, human; settings: Homo sapiens; HCT-116; single dose 10^−5 M; read-out: Growth inhibition (%)
# KM12 = test: NCI-60 SRB screen; format: cell-based, human; settings: Homo sapiens; KM12; single dose 10^−5 M; read-out: Growth inhibition (%)
# OVCAR-3 = test: NCI-60 SRB screen; format: cell-based, human; settings: Homo sapiens; OVCAR-3; single dose 10^−5 M; read-out: Growth inhibition (%)
# NCI-H522 = test: NCI-60 SRB screen; format: cell-based, human; settings: Homo sapiens; NCI-H522; single dose 10^−5 M; read-out: Growth inhibition (%)
# M14 = test: NCI-60 SRB screen; format: cell-based, human; settings: Homo sapiens; M14; single dose 10^−5 M; read-out: Growth inhibition (%)
# NCI-H23 = test: NCI-60 SRB screen; format: cell-based, human; settings: Homo sapiens; NCI-H23; single dose 10^−5 M; read-out: Growth inhibition (%)
# IGROV1 = test: NCI-60 SRB screen; format: cell-based, human; settings: Homo sapiens, IGROV-1; IGROV1; single dose 10^−5 M; read-out: Growth inhibition (%)
# CAKI-1 = test: NCI-60 SRB screen; format: cell-based, human; settings: Homo sapiens; CAKI-1; single dose 10^−5 M; read-out: Growth inhibition (%)
# TK-10 = test: NCI-60 SRB screen; format: cell-based, human; settings: Homo sapiens; TK-10; single dose 10^−5 M; read-out: Growth inhibition (%)
# A549/ATCC = test: NCI-60 SRB screen; format: cell-based, human; settings: Homo sapiens, single dose 10^−5 M, read-out: Growth inhibition (%)
# MOLT-4 = test: NCI-60 SRB screen; format: cell-based; settings: Homo sapiens; MOLT-4; single dose 10^−5 M; read-out: Growth inhibition (%)
# SN12C = test: NCI-60 SRB screen; format: cell-based, human; settings: Homo sapiens, SN12C; SN 12 C; single dose 10^−5 M; read-out: Growth inhibition (%)
# SK-OV-3 = test: NCI-60 SRB screen; format: cell-based, human; settings: Homo sapiens; SK-OV-3; single dose 10^−5 M; read-out: Growth inhibition (%)
# EKVX = test: NCI-60 SRB screen; format: cell-based, human; settings: Homo sapiens, single dose 10^−5 M, read-out: Growth inhibition (%)
# SF-268 = test: NCI-60 SRB screen; format: cell-based, human; settings: Homo sapiens; SF-268; single dose 10^−5 M; read-out: Growth inhibition (%)
# SK-MEL-2 = test: NCI-60 SRB screen; format: cell-based, human; settings: Homo sapiens; SK-MEL-2; single dose 10^−5 M; read-out: Growth inhibition (%)
# SK-MEL-28 = test: NCI-60 SRB screen; format: cell-based; settings: Homo sapiens; SK-MEL-28; single dose 10^−5 M; read-out: Growth inhibition (%)
smiles,measurement,setting,value
"O=C1NC(c2ccccc2[N+](=O)[O-])c2sc3c(F)cccc3c2C1Cl (stereo not shown) [Compound 4c, 4-Chloro-8-fluoro-1-(2-nitrophenyl)-1,2-dihydro[1]benzothieno[2,3-c] pyridine-3(4H)-one]",inhibition at 10 µM,SR,0.2%
same,inhibition at 10 µM,786-0,-16.9%
same,inhibition at 10 µM,NCI/ADR-RES,-1.98%
same,inhibition at 10 µM,OVCAR-8,1.73%
same,inhibition at 10 µM,OVCAR-4,11.1%
same,inhibition at 10 µM,UACC-62,20.8%
same,inhibition at 10 µM,COLO 205,-21.6%
same,inhibition at 10 µM,HCC-2998,-27.4%
same,inhibition at 10 µM,UO-31,33.2%
same,inhibition at 10 µM,SW-620,2.43%
same,inhibition at 10 µM,UACC-257,-0.18%
same,inhibition at 10 µM,HOP-62,3.32%
same,inhibition at 10 µM,NCI-H322M,-4.23%
same,inhibition at 10 µM,MDA-MB-435,-7.17%
same,inhibition at 10 µM,NCI-H226,18.5%
same,inhibition at 10 µM,RXF 393,-17.3%
same,inhibition at 10 µM,ACHN,-4.45%
same,inhibition at 10 µM,CCRF-CEM,-0.04%
same,inhibition at 10 µM,SK-MEL-5,8.45%
same,inhibition at 10 µM,NCI-H460,17.2%
same,inhibition at 10 µM,LOX IMVI,8.72%
same,inhibition at 10 µM,HL-60(TB),-5.53%
same,inhibition at 10 µM,HCT-15,-1.51%
same,inhibition at 10 µM,K-562,33.5%
same,inhibition at 10 µM,HOP-92,-11.2%
same,inhibition at 10 µM,[1],3%
same,inhibition at 10 µM,SF-295,-7.26%
same,inhibition at 10 µM,HCT-116,11.4%
same,inhibition at 10 µM,KM12,-0.66%
same,inhibition at 10 µM,OVCAR-3,7.25%
same,inhibition at 10 µM,NCI-H522,7.95%
same,inhibition at 10 µM,M14,1.7%
same,inhibition at 10 µM,NCI-H23,6.95%
same,inhibition at 10 µM,IGROV1,33%
same,inhibition at 10 µM,CAKI-1,12.4%
same,inhibition at 10 µM,TK-10,-52%
same,inhibition at 10 µM,A549/ATCC,3.15%
same,inhibition at 10 µM,MOLT-4,11.8%
same,inhibition at 10 µM,SN12C,4.76%
same,inhibition at 10 µM,SK-OV-3,-9.85%
same,inhibition at 10 µM,EKVX,11.8%
same,inhibition at 10 µM,SF-268,10.5%
same,inhibition at 10 µM,SK-MEL-2,-16.7%
same,inhibition at 10 µM,SK-MEL-28,8.45%
"O=C1NC(c2cccc([N+](=O)[O-])c2)c2sc3c(F)cccc3c2C1Cl (stereo not shown) [Compound 4d, 4-Chloro-8-fluoro-1-(3-nitrophenyl)-1,2-dihydro[1]benzothieno[2,3-c] pyridine-3(4H)-one]",inhibition at 10 µM,SR,11.4%
same,inhibition at 10 µM,786-0,-11.2%
same,inhibition at 10 µM,NCI/ADR-RES,-8.05%
same,inhibition at 10 µM,OVCAR-8,-1.82%
same,inhibition at 10 µM,OVCAR-4,1.96%
same,inhibition at 10 µM,UACC-62,10.4%
same,inhibition at 10 µM,COLO 205,-17.2%
same,inhibition at 10 µM,HCC-2998,-15.9%
same,inhibition at 10 µM,UO-31,34.7%
same,inhibition at 10 µM,SW-620,3.43%
same,inhibition at 10 µM,UACC-257,-15.8%
same,inhibition at 10 µM,HOP-62,1.22%
same,inhibition at 10 µM,NCI-H322M,-0.93%
same,inhibition at 10 µM,MDA-MB-435,-7.63%
same,inhibition at 10 µM,NCI-H226,5.26%
same,inhibition at 10 µM,RXF 393,-18.1%
same,inhibition at 10 µM,ACHN,6.28%
same,inhibition at 10 µM,CCRF-CEM,1.99%
same,inhibition at 10 µM,SK-MEL-5,4.05%
same,inhibition at 10 µM,NCI-H460,1.43%
same,inhibition at 10 µM,LOX IMVI,5.22%
same,inhibition at 10 µM,HL-60(TB),-16.8%
same,inhibition at 10 µM,HCT-15,1.31%
same,inhibition at 10 µM,K-562,23%
same,inhibition at 10 µM,HOP-92,5.89%
same,inhibition at 10 µM,[1],0.15%
same,inhibition at 10 µM,SF-295,-3.1%
same,inhibition at 10 µM,HCT-116,9.54%
same,inhibition at 10 µM,KM12,-5.21%
same,inhibition at 10 µM,OVCAR-3,-4.91%
same,inhibition at 10 µM,NCI-H522,8.55%
same,inhibition at 10 µM,M14,-0.99%
same,inhibition at 10 µM,NCI-H23,-1.19%
same,inhibition at 10 µM,IGROV1,22.8%
same,inhibition at 10 µM,CAKI-1,27.4%
same,inhibition at 10 µM,TK-10,-40.7%
same,inhibition at 10 µM,A549/ATCC,-2.89%
same,inhibition at 10 µM,MOLT-4,9.18%
same,inhibition at 10 µM,SN12C,2.95%
same,inhibition at 10 µM,SK-OV-3,-10.2%
same,inhibition at 10 µM,EKVX,0.87%
same,inhibition at 10 µM,SF-268,6.94%
same,inhibition at 10 µM,SK-MEL-2,-26.1%
same,inhibition at 10 µM,SK-MEL-28,-10.5%
